This is an account of results in US7705028B2, “Farnesoid X receptor agonists” (GlaxoSmithKline LLC, priority 2005, dated 2010).

Assay [1] concerns rodent models of hepatic fibrosis. Conditions: multiple rodent models; cited from earlier work.
Assay [2] has as its system hepatic stellate cells (HSC). The note with it: cultured HSCs; cited from earlier work.
Assay [3] concerns the target T1, human FXR ligand binding domain (LBD) (Homo sapiens, UniProt Q96RI1).
T1 construct: polyhistidine (pRSET-A vector leader) (N); made in house; host or cells: E. coli BL21 (DE3), pRSET-A vector
T1 sequence (Q96RI1 237-472 isoform Q96RI1-2): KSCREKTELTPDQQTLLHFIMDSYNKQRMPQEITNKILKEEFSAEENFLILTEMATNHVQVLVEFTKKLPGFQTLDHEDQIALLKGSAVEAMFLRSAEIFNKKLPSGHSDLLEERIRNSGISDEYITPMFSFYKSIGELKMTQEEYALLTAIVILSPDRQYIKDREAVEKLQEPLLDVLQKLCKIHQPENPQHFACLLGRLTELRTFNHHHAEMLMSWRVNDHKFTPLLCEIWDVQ
T1 sequence (Q15788 676-700 partner): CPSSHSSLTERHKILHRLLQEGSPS
The experiment in a line: FXR Cofactor Binding Assay (TRF, SRC-1 peptide recruitment). Format: biochemical. The note with it: protocol ⋄: 0.5 μL of test compound, final assay volume 25 μL; read-out: Activity (pEC50) (converted). An excerpt:
Determination of a ligand mediated cofactor peptide interaction to quantify ligand binding to the nuclear receptor Farnasoid X Receptor (FXR). The method measures the ability of putative ligands to modulate the interaction between the purified bacterial expressed human FXR ligand binding domain (LBD) and a synthetic biotinylated peptide based on residues 676-700 of steroid receptor coactivator-1 (SRC-1) (LXXLL-containing domain-2 where L is the amino acid leucine and X indicates any other amino acid (LCD2), 676-700). The sequence of the SRC-1 peptide used is as published in Iannone, M. A. et al, Cytometry 44:326-337 (2001) where the N-terminus was biotinylated (B) and the C-terminus was amidated. Detection of the associated complex was measured by time resolved fluorescence (TRF). The purified LBD of FXR was labeled with biotin then mixed with stoichiometric amounts of allophycocyanin (APC) labeled streptavidin (Molecular Probes). The biotinylated peptide was then mixed with a ½ stoichiometric amount of europium labeled streptavidin (Wallac Inc). Each was then blocked with a 5 fold excess of biotin and allowed to equilibrate for 15 min. Equimolar amounts of receptor and peptide were mixed together and were allowed to equilibrate for at least 30 min prior to the addition to either a variable or constant concentrations of the sample for which the affinity is to be determined. After equilibration, the time-resolved fluorescent signal was quantitated using a fluorescent plate reader. The affinity of the test compound was estimated from a plot of fluorescence versus concentration of test compound added.
A basal level of FXR: peptide formation is observed in the absence of added ligand. Ligands that promote the complex formation induce a concentration-dependent increase in time-resolved fluorescent signal. Compounds which bind equally well to both non-/un-complexed FXR and to the FXR: peptide complex would be expected to give no change in signal, whereas ligands which bind preferentially to the non-/un-complexed receptor would be expected to induce a concentration-dependent decrease in the observed signal.
Human FXR Ligand Binding Domain (FXR LBD) was expressed in E. coli strain BL21 (DE3) as an amino-terminal polyhistidine tagged fusion protein. Expression was under the control of an isopropyl-β-D-thiogalactopyranoside (IPTG) inducible T7 promoter. DNA encoding this recombinant protein is subcloned into the pRSET-A expression vector (Invitrogen). The coding sequence of Human FXR LBD was derived from Genbank accession number U 68233 (amino acids 237 to 472).
Ten-liter fermentation batches were grown in Rich PO4 media with 0.1 mg/mL Ampicillin at 25° C. for 12 hours, cooled to 9° C. and held at that temperature for 36 hours to a density of OD600=14. At this cell density, 0.25 mM IPTG is added and induction proceeded for 24 hours at 9° C., to a final OD600=16. Cells are harvested by centrifugation (20 minutes, 3500× gravity, 4° C.), and concentrated cell slurries were stored in phosphate buffered saline (PBS) at […].
Routinely, 30-40 g cell paste (equivalent to 2-3 liters of the fermentation batch) was resuspended in 200-250 mL Tris buffered saline (TBS), pH 7.2 (25 mM Tris-Hydroxymethylamino methane (Tris), 150 mM NaCl). Cells were lysed by passing 3 times through a French Press and cell debris was removed by centrifugation (30 minutes, 20,000× gravity, 4° C.). The cleared supernatant was filtered through course pre-filters, and TBS, pH 7.2, 500 mM imidazole was added to obtain a final imidazole concentration of 50 mM. This lysate was loaded onto a column (6×8 cm) packed with Sepharose [Ni^++ charged] Chelation resin (Pharmacia) and pre-equilibrated with TBS pH 7.2/50 mM imidazole. After washing to baseline absorbance with equilibration buffer, the column was washed with one column volume of TBS pH 7.2 containing 90 mM imidazole. FXR LBD was eluted directly with 365 mM imidazole. […]

For assay [4], the system named is high-fat diet induced insulin resistant, glucose intolerant, and obese mouse model. The experiment in a line: High-fat diet induced insulin resistant, glucose intolerant, obese mouse model. Format: in vivo. The note with it: C57BL mice, 100 mg/kg twice a day orally. An excerpt:
Compounds of formula (I) are also useful for the treatment of diabetes mellitus in a subject, such as a mammal, particularly a human. For example, the compounds of formula (I) are useful for the treatment of type 2 diabetes. The effects of an FXR agonist, GW4064, on body weight, glucose tolerance, serum glucose, serum insulin, serum triglyceride, and liver triglyceride contents via oral administration have been observed in an high-fat diet induced insulin resistant, glucose intolerant, and obese mouse model. Male 20 to 25 g C57BL mice (Charles River, Indianapolis, Ind.) were housed at 72° F. and 50% relative humidity with a 12 h light and dark cycle and fed with standard rodent chow (Purina 5001, Harlan Teklad, Indianapolis, Ind.) or a high-fat diet (TD93075, Harlan Teklad, Indianapolis, Ind.) for seven weeks. After two weeks, mice on high-fat diet were randomized to vehicle or treatment groups. There were no significant difference in body weight, body fat mass, serum glucose and insulin, and area under the curve (AUC) for glucose in glucose tolerance test (GTT) between the vehicle group and the treatment group. Starting from the fourth week, mice were given either vehicle or GW4064 (100 mg/kg) twice a day orally. Mice on the standard rodent chow were also given vehicle as a control. At the end of the third week of compound treatment, a GTT was performed and body composition was measured using the quantitative magnetic resonance (QMR) method. […] Blood glucose during GTT was measured using Bayer Glucometer Elite® XL. Serum chemistry levels were measured using the Instrumentation Laboratory Ilab600™ clinical chemistry analyzer (Instrumentation Laboratory, Boston, Mass.). Liver triglyceride contents were measured using the methanolic-KOH saponification method and a triglyceride assay kit (GPO-TRINDER, Sigma Diagnostics, St. Louis, Mo.). […] It is believed that the result may have been due to a decrease in fat mass.

In assay [5] the test system is bile duct-ligated mouse model of cholestasis and intestinal bacterial overgrowth. The note with it: cited from earlier work.
The subject of assay [6] is mice on a lithogenic diet. The note with it: cited from earlier work.

As for `CC[C@H]1[C@@H](O)[C@@H]2[C@H](CC[C@]3(C)[C@@H]([C@H](C)CCC(=O)O)CC[C@@H]23)[C@@]2(C)CC[C@@H](O)C[C@@H]12` [Example 6EtCDCA, 6-ethyl-chenodeoxycholic acid], in assay [1], the hepatic fibrosis result was “prevent development and promote resolution of hepatic fibrosis”. Also, the “expression of fibrotic markers such as α-smooth muscle actin and α1(I)collagen” value in assay [2] was “decreased expression of fibrotic markers”.

For `CC(C)c1onc(-c2c(Cl)cccc2Cl)c1COc1ccc(-c2ccc3c(-c4nn[nH]n4)cccc3c2)cc1` [Example 12c, 5-{6-[4-({[3-(2,6-dichlorophenyl)-5-(1-methylethyl)-4-isoxazolyl]methyl}oxy)phenyl]-1-naphthalenyl}-1H-tetrazole], the EC50 in assay [3] is 102 to 1000 nM.

`CC(C)c1onc(-c2c(Cl)cccc2Cl)c1COc1ccc(/C=C/c2cccc(C(=O)O)c2)c(Cl)c1` [GW4064]: the “high-fat diet induced body weight gain” value in assay [4] is on record as “reduced the high-fat diet induced body weight gain”. The “glucose tolerance (GTT)” value in assay [4] (end of third week of treatment) was “appeared to improve glucose tolerance”. In addition, in assay [4] (fourth week of treatment), the liver triglyceride content result is “reduced liver triglyceride content”, the serum glucose result is on record as “decreased”, the serum insulin result was “decreased” and the serum triglyceride entry is listed as “decreased”. The “effect on translocation of bacteria in FXR null mice” value in assay [5] (FXR null mice) was “lost in FXR null mice”. Moreover, in assay [5] (bile duct-ligated mice), the bacterial overgrowth result is “decreased bacterial overgrowth”, the mucosal barrier result is reported as “improved mucosal barrier” and the “translocation of bacteria to mesenteric lymph nodes” value is listed as “decreased translocation of bacteria to mesenteric lymph nodes”. Further, in assay [6] (FXR null mice), the “effect on cholesterol crystal formation in FXR null mice” value is “lost in FXR null mice”. Also, the “formation of cholesterol crystals in the bile” value in assay [6] (mice on a lithogenic diet) is “prevented the formation of cholesterol crystals in the bile”.
